Consider three compounds from US20080317752A1, “Inhibition of Tumorigenesis by Inhibition of a6b4 Integrin” (Sloan-Kettering Institute for Cancer Research, priority 2005, published 2008).

Experiment [1] has as its system mammary tumors of MMTV-Neu (YD) mice. Description: Treatment of tumor-bearing MMTV-Neu(YD) mice, tumor volume by caliper. The class given is in vivo. The note with it: for effect on tumor volume: Iressa 100 mg/Kg/day, day 24; for treated tumors that regress: Iressa 100 mg/Kg/day gastric gavage 24 days.
The subject of experiment [2] is tumor cells expressing wild-type b4. Description: Assembly of adherens and tight junctions in primary ErbB2-transformed tumor cells. The experiment is classed as cell-based, mouse. The text has this:
Tight junctions have emerged as key regulators of mammalian epithelial polarity and adhesion. Prompted by the observation that deletion of the b4 signaling domain increases the organization of tight junctions in mammary tumors, we used an ex vivo approach to examine the effect of b4 signaling on epithelial adhesion and polarity.

Experiment [3] has as its system c-Jun. Description: Phosphorylation of c-Jun in Neu-b4-WT cells. The class given is cell-based, mouse.
Experiment [4] concerns mammary tumors of Neu(YD) mice. Put plainly: Tumor apoptosis in treated mice. The experiment is classed as in vivo.
The subject of experiment [5] is SFKs. Put plainly: Activation of SFKs. The class given is cell-based. On the procedure: (§1) Biochemical studies were performed to study the molecular mechanism by which b4 signaling promotes mammary tumorigenesis.
The subject of experiment [6] is activated ErbB2. Description: Inhibition of activated ErbB2 (IC50). The class given is cell-based. The note with it: Neu-b4-WT versus Neu-b4-1355T cells in vitro.
Experiment [7] deals with c-Jun and STAT3. Description: Activation of c-Jun and STAT3 in tumor lysates of treated mice. The experiment is classed as in vivo. The note with it: both types of tumors.
In experiment [8] the test system is b4. Put plainly: Tyrosine phosphorylation of b4. The experiment is classed as cell-based. The protocol: as §1
Experiment [9] has as its system mammary tumors of MMTV-Neu (YD) mice. Description: Anti-Ki-67 staining of tumor sections from treated MMTV-Neu(YD) mice. The class given is in vivo. The protocol: Tumor sections were stained by IHC with anti-Ki-67 followed by counterstaining with hematoxylin. Bar=[…].
Tumor sections were stained with anti-Ki-67 Mab, which labels proliferating cells.

Experiment [10] relates to Neu-b4-WT cells. Description: Matrigel invasion assay in response to FBS. Conditions: Iressa 10 μM.
In experiment [11] the test system is ERK and Akt. Put plainly: Activation of ERK and Akt in tumor lysates of treated mice. The experiment is classed as in vivo. Conditions: Neu(YD)/b4-1355T versus Neu(YD)/b4-WT tumors.
For experiment [12], the system named is STAT3. Put plainly: Phosphorylation of STAT3 in Neu-b4-WT cells. The experiment is classed as cell-based, mouse. From the text: Prior studies have linked SFK-mediated phosphorylation of the P-loop of ErbB receptors to JAK-STAT signaling. Since deletion of the b4 signaling domain reduces SFK activation and association with ErbB2 and decreases phosphorylation of the P-loop of ErbB-2, we examined the effect of this deletion on STAT3 activation. Phosphorylation at Y705 is essential for dimerization and activation of STAT3. […] […]. STAT3 S727, which is targeted by ERK, was phosphorylated at similar levels in both types of cells.

Experiment [13] has as its system Neu-b4-WT cells. Put plainly: Assembly of adherens and tight junctions in isogenic Neu-b4-WT cells. Conditions: Neu-b4-WT cells in culture.
Source text: To examine if the b4 integrin disrupts epithelial adhesion by a direct signaling mechanism, we generated isogenic Neu-transformed mammary tumor cells expressing either wildtype or mutant b4 by using an RNAi-reconstitution strategy.
Experiment [14] concerns ErbB2. Put plainly: Activation of ErbB2 in tumors of treated mice. The note with it: Neu(YD)/b4-WT and Neu(YD)/b4-1355T tumors.
Experiment [15] concerns ErbB2. Description: Phosphorylation of ErbB2 (immunoprecipitation / immunoblotting). The experiment is classed as cell-based. Conditions: for phosphorylation of the P-loop of ErbB2: immunoblotting of total lysates, single agent. On the procedure:
as §1
Since SFKs can phosphorylate Y845 in the P-loop of the EGF-R, we examined the effect of SFK inhibition on phosphorylation of the corresponding tyrosine in the P-loop of ErbB2.
In general terms: A western blot detects proteins with antibodies after separation by electrophoresis.

The subject of experiment [16] is ERK and Akt. Description: Activation of ERK and Akt in Neu-b4 cells in vitro. The class given is cell-based, mouse. The note with it: Neu-b4-1355T versus Neu-b4-WT cells.

Chain of activated ErbB2 (P04626 23-1255): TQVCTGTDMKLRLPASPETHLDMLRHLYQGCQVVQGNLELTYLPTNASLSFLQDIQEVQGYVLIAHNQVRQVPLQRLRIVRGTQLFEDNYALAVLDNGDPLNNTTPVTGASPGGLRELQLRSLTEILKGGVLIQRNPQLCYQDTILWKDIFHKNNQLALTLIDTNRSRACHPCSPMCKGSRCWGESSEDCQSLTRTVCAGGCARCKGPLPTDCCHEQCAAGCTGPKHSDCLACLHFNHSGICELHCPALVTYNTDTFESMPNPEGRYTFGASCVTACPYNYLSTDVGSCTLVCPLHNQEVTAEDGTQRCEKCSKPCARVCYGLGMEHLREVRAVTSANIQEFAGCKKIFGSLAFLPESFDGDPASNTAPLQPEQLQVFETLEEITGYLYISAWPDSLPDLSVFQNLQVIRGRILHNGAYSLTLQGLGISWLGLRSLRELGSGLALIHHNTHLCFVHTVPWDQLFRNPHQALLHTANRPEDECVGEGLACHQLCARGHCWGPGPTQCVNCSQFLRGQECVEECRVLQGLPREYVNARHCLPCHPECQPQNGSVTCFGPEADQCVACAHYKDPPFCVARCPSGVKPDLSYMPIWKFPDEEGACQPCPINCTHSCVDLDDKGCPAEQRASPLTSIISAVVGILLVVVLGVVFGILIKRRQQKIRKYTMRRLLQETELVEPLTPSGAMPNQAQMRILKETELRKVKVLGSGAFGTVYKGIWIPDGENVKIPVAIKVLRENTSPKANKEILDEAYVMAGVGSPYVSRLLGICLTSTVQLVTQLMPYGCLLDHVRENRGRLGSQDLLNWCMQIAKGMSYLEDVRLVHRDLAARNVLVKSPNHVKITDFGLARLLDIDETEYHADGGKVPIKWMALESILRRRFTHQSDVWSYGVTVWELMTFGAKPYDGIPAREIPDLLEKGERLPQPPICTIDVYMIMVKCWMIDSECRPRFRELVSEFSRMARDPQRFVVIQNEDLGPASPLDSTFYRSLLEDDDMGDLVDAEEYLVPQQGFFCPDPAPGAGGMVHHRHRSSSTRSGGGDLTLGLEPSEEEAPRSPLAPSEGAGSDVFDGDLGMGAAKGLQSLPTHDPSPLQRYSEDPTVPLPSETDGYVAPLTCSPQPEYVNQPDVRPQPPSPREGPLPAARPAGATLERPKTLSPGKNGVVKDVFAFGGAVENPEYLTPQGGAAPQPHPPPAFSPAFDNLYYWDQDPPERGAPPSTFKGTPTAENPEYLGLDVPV

Take `COc1cccc2c1C(=O)c1c(O)c3c(c(O)c1C2=O)C[C@@](O)(C(=O)CO)C[C@@H]3O[C@H]1C[C@H](N)[C@H](O)[C@H](C)O1` [Doxorubicin]: the tumor regression result in experiment [1] (Neu(YD)/b4-WT and Neu(YD)/b4-1355T mice, single dose 10 mg/Kg) is listed as “failed to induce tumor regression in either type of mouse”.
Take `COc1cc2ncnc(Nc3ccc(F)c(Cl)c3)c2cc1OCCCN1CCOCC1` [Iressa, Gefitinib]: in experiment [2], the “reassembly of adherens and tight junctions” value is “promoted reassembly of both adherens and tight junctions”. For the same compound, the “phosphorylation of c-Jun” value in [3] is listed as “inhibited phosphorylation of c-Jun in Neu-b4-WT cells, but at concentrations higher than those required to suppress activation of ERK”. Moreover, in [4] (Neu(YD)/b4-1355T versus Neu(YD)/b4-WT mice), the “tumor apoptosis, comparison of genotypes” value is listed as “increased tumor apoptosis in Neu(YD)/b4-1355T mice to a larger extent than it did in Neu(YD)/b4-WT mice”. In addition, the overall apoptotic rates entry in [4] (both genotypes, treated) is recorded as “less than 1%”. For the same compound, the “activation of SFKs” value in experiment [5] is recorded as “did not affect”. Also, the “apparent IC50, comparison of cell types” value in [6] was “equal apparent IC50”. The “activation of c-Jun and STAT3 in tumor lysates” value in [7] is reported as “did not suppress but seemed to increase to a small extent”. Further, in experiment [8], the “tyrosine phosphorylation of b4” value was “suppressed”. For the same compound, the tumor cell proliferation result in experiment [9] (Neu(YD)/b4-1355T mice) was “inhibited tumor cell proliferation”; in [9] (Neu(YD)/b4-WT mice), “more modest inhibitory effect”. For the same compound, the Matrigel invasion result in experiment [10] was “prevented their invasion”. The “activation of ERK and Akt in tumor lysates” value in experiment [11] was “inhibited activation of ERK and Akt in Neu(YD)/b4-1355T tumors by an extent larger than it did in Neu(YD)/b4-WT tumors”. Besides, the “phosphorylation of STAT3” value in experiment [12] is “inhibited phosphorylation of STAT3 in Neu-b4-WT cells at concentrations higher than those necessary to suppress activation of ERK”. The “effect on tumor volume” value is on record as “induced regression” in experiment [1] (Neu(YD)/b4-1355T tumors) and “only reduced the rate of growth” in experiment [1] (Neu(YD)/b4-WT tumors). For the same compound, the “treated tumors that regress” value is recorded as ~20% in [1] (control group (wild-type b4 mice)) and “About 80%” in experiment [1] (tumors arising in b4-mutant mice). Also, the “organization of adherens and tight junctions” value in experiment [13] is “failed to organize both types of junctions, unless they were treated with Iressa”. Also, the “activation of ErbB2 in tumors” value in experiment [14] is “suppressed activation of ErbB2 in both types of tumors”. In addition, the “phosphorylation of ErbB2 at its major autophosphorylation site” value in experiment [15] is reported as “suppressed”. For the same compound, the “tyrosine phosphorylation of ErbB2” value in experiment [15] is “suppressed”. For the same compound, the “phosphorylation of the P-loop of ErbB2” value in [15] was “inhibit phosphorylation of the P-loop of ErbB2 to a significant extent”. Also, the “activation of ERK and Akt in vitro” value in experiment [16] is “at doses lower than in Neu-b4-WT cells”.
On to `CC(C)(C)n1nc(-c2ccc(Cl)cc2)c2c(N)ncnc21` [PP2], for which the “activation of SFKs” value in [5] was “exerted the opposite effects”. Also, the “tyrosine phosphorylation of b4” value in experiment [8] is reported as “suppressed”. Besides, in experiment [15], the “phosphorylation of ErbB2 at its major autophosphorylation site” value is “exerted the opposite effects”, the “tyrosine phosphorylation of ErbB2” value was “only partially inhibited” and the “phosphorylation of the P-loop of ErbB2” value is reported as “inhibit phosphorylation of the P-loop of ErbB2 to a significant extent”.
